What was measured:
in vitro = details: human, microsomes, pH 7.6
Description: Determination of Metabolic Stability with Human Liver Microsomes
The metabolic degradation of the test compound is assayed at 37° C. with pooled human liver microsomes. The final incubation volume of 100 μl per time point contains TRIS buffer pH 7.6 (0.1 M), magnesium chloride (5 mM), microsomal protein (1 mg/ml) and the test compound at a final concentration of 1 μM. Following a short preincubation period at 37° C., the reactions are initiated by addition of beta-nicotinamide adenine dinucleotide phosphate, reduced form (NADPH, 1 mM) and terminated by transferring an aliquot into acetonitrile after different time points. Additionally, the NADPH-independent degradation is monitored in incubations without NADPH, terminated at the last time point. The [%] remaining test compound after NADPH independent incubation is reflected by the parameter c (control) (metabolic stability). The quenched incubations are pelleted by centrifugation (10,000 g, 5 min). An aliquot of the supernatant is assayed by LC-MS/MS for the amount of parent compound.
The half-life (t½ INVITRO) is determined by the slope of the semilogarithmic plot of the concentration-time profile.

[1] = biological target: recombinant human DPPI (Cathepsin C) (Homo sapiens (Human), UniProt P53634); experiment: Inhibition of human DPPI (Cathepsin C); type: biochemical; details: substrate Gly-Arg-AMC
Procedure, shortened: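 Fluorescence read after 30 min room-temperature turnover of 50 μM (final) substrate by recombinant human cathepsin C, pH 6.0 MES/NaCl/DTT/BSA buffer, quenched by Gly-Phe-DMK (1 μM final). Activity as percent of vehicle after background subtraction, used for IC50.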

[2] = biological target: recombinant human Cathepsin K (Homo sapiens (Human), UniProt P43235); experiment: Inhibition of human Cathepsin K; type: biochemical; details: substrate Z-Gly-Pro-Arg-AMC
Chain of recombinant human Cathepsin K (P43235 115-329): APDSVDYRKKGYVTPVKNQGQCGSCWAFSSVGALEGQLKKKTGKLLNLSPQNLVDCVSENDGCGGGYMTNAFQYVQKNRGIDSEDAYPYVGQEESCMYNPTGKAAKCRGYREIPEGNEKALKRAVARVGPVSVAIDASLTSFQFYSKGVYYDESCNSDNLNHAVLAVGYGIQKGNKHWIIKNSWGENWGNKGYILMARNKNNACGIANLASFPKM
Procedure, shortened: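 Fluorogenic Z-Gly-Pro-Arg-AMC cleavage, 60 min at room temperature, after a 10 min enzyme–compound preincubation (enzyme 2 ng/μL; compound 0.1 nM–100 μM; 1% DMSO). Buffer pH 5.5 with sodium acetate, EDTA and L-cysteine; procathepsin first activated 30 min at pH 3.5. E64 (1 μM) stop; IC50 derived from percent of vehicle signal minus background (Ex 360/Em 460 nm).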

Chain of recombinant human DPPI (Cathepsin C) (P53634 231-394): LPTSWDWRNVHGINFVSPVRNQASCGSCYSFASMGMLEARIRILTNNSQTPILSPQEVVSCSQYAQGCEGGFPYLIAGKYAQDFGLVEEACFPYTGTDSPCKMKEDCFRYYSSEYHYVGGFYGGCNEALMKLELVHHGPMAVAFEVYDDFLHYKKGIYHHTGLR
Chain of recombinant human DPPI (Cathepsin C) (P53634 395-463): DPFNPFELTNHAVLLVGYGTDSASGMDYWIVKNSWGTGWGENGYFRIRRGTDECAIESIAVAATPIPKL
Chain of recombinant human DPPI (Cathepsin C) (P53634 25-134): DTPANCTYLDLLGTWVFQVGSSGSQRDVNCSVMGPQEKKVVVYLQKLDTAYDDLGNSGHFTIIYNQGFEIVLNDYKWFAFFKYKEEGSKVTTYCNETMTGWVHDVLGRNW

SMILES | half-life at 1 μM (in vitro) [h] | IC50 [1] [µM] | IC50 [2] [µM]
N#C[C@H](Cc1ccc(N2CCNCC2)cc1F)NC(=O)[C@H]1N[C@@H]2CC[C@H]1C2 [Example 204] | > 2.17 | 0.0245 | –
CN1C2CCC1CN(c1ccc(C[C@@H](C#N)NC(=O)[C@H]3N[C@@H]4CC[C@H]3C4)c(F)c1)C2 [Example 333] | > 2.17 | 0.0153 | 2.4
CN1CCC(C)(c2ccc(C[C@@H](C#N)NC(=O)[C@H]3N[C@@H]4CC[C@H]3C4)c(F)c2)CC1 [Example 321] | > 2.17 | – | –
CN(C)CCN1C(=O)Cc2ccc(-c3ccc(C[C@@H](C#N)NC(=O)[C@H]4N[C@@H]5CC[C@H]4C5)c(F)c3)cc21 [Example 278] | > 2.17 | 0.001 | 1.2
N#C[C@H](Cc1ccc(C2=CCN(C3CCOC3)CC2)cc1F)NC(=O)[C@H]1N[C@@H]2CC[C@H]1C2 (stereo partly drawn) [Example 332] | 1.67 | 0.0129 | 6.2
CCN1CC=C(c2ccc(C[C@@H](C#N)NC(=O)[C@H]3N[C@@H]4CC[C@H]3C4)c(F)c2)CC1 [Example 320] | > 2.17 | 0.0096 | –
CN1CC2CCC(C1)N2c1ccc(C[C@@H](C#N)NC(=O)[C@H]2N[C@@H]3CC[C@H]2C3)c(F)c1 [Example 328] | > 2.17 | 0.0042 | 7.7
CN1CC=C(c2ccc(C[C@@H](C#N)NC(=O)[C@H]3N[C@@H]4CC[C@H]3C4)c(F)c2)CC1 [Example 223] | > 2.17 | – | –
N#C[C@H](Cc1ccc(C2=CC3COCCN3CC2)cc1F)NC(=O)[C@H]1N[C@@H]2CC[C@H]1C2 (stereo partly drawn) [Example 282] | > 2.17 | 0.0037 | 1.8

— patent publication US8987249B2, “Substituted 2-Aza-bicyclo[2.2.1]heptane-3-carboxylic acid (benzyl-cyano-methyl)-amides inhibitors of Cathepsin C” (Boehringer Ingelheim International GmbH, priority 2013, dated 2015)
